Laboratory results: patent US20240228482A1, “COMPOUNDS, COMPOSITIONS AND METHODS OF TREATING CANCER” (HOTSPOT THERAPEUTICS, INC., priority 2021, published 2024)

target: T1, CBL-B (Homo sapiens, UniProt Q13191); assay: CBL-B TR-FRET IC50 screening (E1/E2 ubiquitination, Biotin-Ubiquitin, Anti GST-Tb donor / Streptavidin-d2 acceptor); assay type: biochemical; conditions: CBL-B 10 nM final; 11-point titration from 100 uM; binned A-F; read-out: CBL-B TR-FRET activity IC50
T1 construct: GST
T1 sequence (Q13191 whole entry): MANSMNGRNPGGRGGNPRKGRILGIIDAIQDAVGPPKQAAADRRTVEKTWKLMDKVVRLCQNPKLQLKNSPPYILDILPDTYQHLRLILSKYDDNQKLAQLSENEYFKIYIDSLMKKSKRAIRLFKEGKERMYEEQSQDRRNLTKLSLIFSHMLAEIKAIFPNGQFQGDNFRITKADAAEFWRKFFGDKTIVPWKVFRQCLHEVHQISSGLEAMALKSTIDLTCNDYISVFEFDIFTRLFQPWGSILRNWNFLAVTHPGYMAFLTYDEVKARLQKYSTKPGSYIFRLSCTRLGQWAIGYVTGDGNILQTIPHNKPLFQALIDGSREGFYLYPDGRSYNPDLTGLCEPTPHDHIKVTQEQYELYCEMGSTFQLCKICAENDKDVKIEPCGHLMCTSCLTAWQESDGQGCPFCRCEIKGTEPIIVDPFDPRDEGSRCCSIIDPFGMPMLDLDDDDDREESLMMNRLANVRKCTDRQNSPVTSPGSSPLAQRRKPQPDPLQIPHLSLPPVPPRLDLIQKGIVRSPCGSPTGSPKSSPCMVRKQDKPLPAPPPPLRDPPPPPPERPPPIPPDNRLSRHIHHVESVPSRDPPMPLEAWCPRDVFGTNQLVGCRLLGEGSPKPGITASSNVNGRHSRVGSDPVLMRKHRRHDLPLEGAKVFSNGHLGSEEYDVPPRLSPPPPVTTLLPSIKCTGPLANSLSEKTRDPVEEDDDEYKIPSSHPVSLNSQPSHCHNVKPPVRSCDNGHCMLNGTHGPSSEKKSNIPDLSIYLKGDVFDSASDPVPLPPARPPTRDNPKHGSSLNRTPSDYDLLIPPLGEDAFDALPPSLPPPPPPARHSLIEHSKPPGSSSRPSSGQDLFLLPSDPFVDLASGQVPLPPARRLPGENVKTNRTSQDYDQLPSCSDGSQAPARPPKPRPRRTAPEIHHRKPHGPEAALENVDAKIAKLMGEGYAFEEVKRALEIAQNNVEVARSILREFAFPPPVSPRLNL

Row | SMILES | IC50
1 | C[C@H]1CCCN(Cc2cc(C(F)(F)F)c3cn(-c4cccc([C@]5(c6nncn6C)C[C@@H](C)C5)c4)c(=O)n3c2)C1 (single isomer, unassigned) [Compound 60] | < 0.1 µM
2 | Cn1cnnc1CC1(c2cccc(-n3cc4c(C(F)(F)F)cc(C5=CCNC5)cn4c3=O)c2)COC1 [Compound 64] | 1 to 3 µM
3 | Cn1cnnc1C(F)(F)[C@@](C)(F)c1cccc(-n2cc3c(C(F)(F)F)cc(CN4CCC(F)(F)C4)cn3c2=O)c1 [Compound 36] | 0.301 to 1 µM
4 | Cn1cnnc1CC1(c2cccc(-n3cc4c(C(F)(F)F)cc(CO)cn4c3=O)c2)COC1 (single isomer, unassigned) [Compound 81] | 0.301 to 1 µM
5 | CN1CC=C(c2cc(C(F)(F)F)c3cn(-c4cccc(C5(Cc6nncn6C)COC5)c4)c(=O)n3c2)C1 [Compound 78] | < 0.1 µM
6 | COCCNCc1cc(C(F)(F)F)c2cn(-c3cccc(C4(Cc5nncn5C)COC4)c3)c(=O)n2c1 [Compound 50] | < 0.1 µM
7 | Cn1cnnc1[C@@H](c1cccc(-n2cc3c(C(F)(F)F)cc(CN4CC5(CCC5)C4)cn3c2=O)c1)C1CCC1 [Compound 286] | < 0.1 µM
8 | CN(CCO)C(=O)c1cc(C(F)(F)F)c2cn(-c3cccc(C4(Cc5nncn5C)COC4)c3)c(=O)n2c1 [Compound 38] | 0.301 to 1 µM
9 | C[C@@H](c1cc(C(F)(F)F)c2cn(-c3cccc(C4([C@H](F)c5nncn5C)COC4)c3)c(=O)n2c1)N1CCC2(CC2)C1 [Compound 54] | 0.1 to 0.3 µM
10 | Cn1cnnc1C(F)(F)[C@](C)(F)c1cccc(-n2cc3c(C(F)(F)F)cc(CN4CC[C@H](F)C4)cn3c2=O)c1 [Compound 26] | 0.1 to 0.3 µM
11 | C[C@H]1CCCN(Cc2cc(C(F)(F)F)c3cn(-c4cc(F)cc([C@H](c5nncn5C)C5CCC5)c4)c(=O)n3c2)C1 (single isomer, unassigned) [Compound 243] | < 0.1 µM
12 | Cn1cnnc1CC1(c2cccc(-n3cc4c(C(F)(F)F)cc(CNCCO)cn4c3=O)c2)COC1 [Compound 75] | 0.1 to 0.3 µM

Continued, values first:

Row | IC50 | SMILES
13 | > 10 µM | Cn1cnnc1[C@@H](c1cccc(-n2cc3c(C(F)(F)F)cc(CNC4CC(F)(F)C4)cn3c2=O)c1)C1CCC1 [Compound 346]
14 | < 0.1 µM | Cn1cnnc1[C@]1(c2cccc(-n3cc4c(C(F)(F)F)cc(CN5CCc6ncsc6C5)cn4c3=O)c2)C[C@H](C)C1 (single isomer, unassigned) [Compound 308]

same assay, conditions: second part of Table 2 (head 'Patent Cmpd No / Updated Activity'); same CBL-B TR-FRET IC50 bins A-F; read-out: Updated Activity

Row | IC50 | SMILES
15 | < 0.1 µM | C[C@H](c1cc(C(F)(F)F)c2cn(-c3cccc([C@H](c4nncn4C)C4CCC4)c3)c(=O)n2c1)N(C)Cc1cncs1 [Compound 610_P1]
16 | < 0.1 µM | C[C@@H]1CCCN(Cc2cc(C(F)(F)F)c3cn(-c4cccc(C5(Cc6nncn6C)COC5)c4)c(=O)n3c2)C1 [Compound 416]
17 | < 0.1 µM | Cn1cnnc1[C@@H](c1cccc(-n2cc3c(C(F)(F)F)cc(CN4CCCCS4(=O)=O)cn3c2=O)c1)C1CCC1 [Compound 543]
18 | < 0.1 µM | CC(=O)N1CC[C@H](c2cc(C(F)(F)F)c3cn(-c4cccc([C@H](c5nncn5C)C5CCC5)c4)c(=O)n3c2)C1 (single isomer, unassigned) [Compound 421]
19 | < 0.1 µM | C[C@@H]1CN(Cc2cc(C(F)(F)F)c3cn(-c4cccc([C@H](c5nncn5C)C5CCC5)c4)c(=O)n3c2)CC[C@H]1O (single isomer, unassigned) [Compound 586]
20 | > 10 µM | Cc1cn(CC#N)nc1[C@@H](c1cccc(-n2cc3c(C(F)(F)F)cc(CN4CCC[C@H](C)C4)cn3c2=O)c1)C1CCC1 (single isomer, unassigned) [Compound 419]
21 | > 10 µM | CNC(=O)Cc1cc([C@H](c2nncn2C)C2CCC2)cc(-n2cc3c(C(F)(F)F)cccn3c2=O)c1 (single isomer, unassigned) [Compound 538]
22 | < 0.1 µM | Cn1cnnc1[C@@H](c1cccc(-n2cc3c(C(F)(F)F)cc(CN4CCC5(CC4)CC5)cn3c2=O)c1)C1CCC1 [Compound 503]
23 | 0.1 to 0.3 µM | C[C@H]1CCCN(Cc2cc(C(F)(F)F)c3cn(-c4cccc([C@@H](c5nncn5C)C5CC5)c4)c(=O)n3c2)C1 [Compound 472_P1]
24 | 0.1 to 0.3 µM | COCCn1ccnc1-c1cc(C(F)(F)F)c2cn(-c3cccc(C4(c5nncn5C)CCC4)c3)c(=O)n2c1 [Compound 611]
25 | < 0.1 µM | Cn1cnnc1[C@@H](c1cccc(-n2cc3c(C(F)(F)F)cc(CN4CCCNS4(=O)=O)cn3c2=O)c1)C1CCC1 [Compound 544]
26 | < 0.1 µM | COC[C@H]1CCN1Cc1cc(C(F)(F)F)c2cn(-c3cccc([C@H](c4nncn4C)C4CCC4)c3)c(=O)n2c1 [Compound 548]
27 | > 10 µM | C[C@H]1CCCN(Cc2cc(C(F)(F)F)c3cn(-c4cc(C#N)cc([C@H](c5nncn5C)C5COC5)c4)c(=O)n3c2)C1 (single isomer, unassigned) [Compound 555]
28 | < 0.1 µM | C[C@@H]1CC(=O)NN1Cc1cc(C(F)(F)F)c2cn(-c3cccc([C@H](c4nncn4C)C4CCC4)c3)c(=O)n2c1 (single isomer, unassigned) [Compound 598]
